In ChEMBL document CHEMBL2021893, “Synthesis, structure-activity relationship and in vitro anti-mycobacterial evaluation of 13-n-octylberberine derivatives” (2012):
In brackets after ≈: the same amount, converted by molar mass.

Assays:
Type in all cases: functional
[1] = system: Mycobacterium tuberculosis; experiment: Antimycobacterial activity against multidrug-resistant Mycobacterium tuberculosis isolate 44 from Chinese tuberculosis patient measured 24 hrs post dose by microplate alamar blue assay; settings: isolate 44, 24 h
[2] = system: Mycobacterium tuberculosis; experiment: Antimycobacterial activity against multidrug-resistant Mycobacterium tuberculosis isolate 164 from Chinese tuberculosis patient measured 24 hrs post dose by microplate alamar blue assay; settings: isolate 164, 24 h
[3] = system: Mycobacterium tuberculosis; experiment: Antimycobacterial activity against multidrug-resistant Mycobacterium tuberculosis isolate 926 from Chinese tuberculosis patient measured 24 hrs post dose by microplate alamar blue assay; settings: isolate 926, 24 h
[4] = system: Mycobacterium tuberculosis; experiment: Antimycobacterial activity against multidrug-resistant Mycobacterium tuberculosis isolate 83 from Chinese tuberculosis patient measured 24 hrs post dose by microplate alamar blue assay; settings: isolate 83, 24 h
[5] = system: Mycobacterium tuberculosis; experiment: Antimycobacterial activity against multidrug-resistant Mycobacterium tuberculosis isolate 431 from Chinese tuberculosis patient measured 24 hrs post dose by microplate alamar blue assay; settings: isolate 431, 24 h

Question: For `CCCCCCCCc1c2[n+](cc3c(OC)c(OC)ccc13)CCc1cc(OCC)c(OCC)cc1-2.[Cl-]`, which MIC [1] is on record?
Answer: The MIC was 4 µg/mL.

Question: And the MIC [2]?
Answer: Its MIC is 4 µg/mL.

Question: What about the MIC [3] of the same molecule?
Answer: The MIC was 4 µg/mL.

Question: What about the MIC [4] of the same molecule?
Answer: Its MIC is 4 µg/mL.

Question: `NNC(=O)c1ccncc1` [ISONIAZID] was tested. Which MIC [1] did it give?
Answer: Its MIC is 4 µg/mL (≈ 29.2 µM).

Question: And the MIC [5]?
Answer: The MIC was 64 µg/mL (≈ 467 µM).

Question: And the MIC [2]?
Answer: The MIC was 4 µg/mL (≈ 29.2 µM).

Question: And the MIC [3]?
Answer: The MIC was 32 µg/mL (≈ 233 µM).

Question: What about the MIC [4] of the same molecule?
Answer: Its MIC is 4 µg/mL (≈ 29.2 µM).

Question: `CO[C@H]1/C=C/O[C@@]2(C)Oc3c(C)c(O)c4c(O)c(c(/C=N/N5CCN(C)CC5)c(O)c4c3C2=O)NC(=O)/C(C)=C\C=C\[C@H](C)[C@H](O)[C@@H](C)[C@@H](O)[C@@H](C)[C@H](OC(C)=O)[C@@H]1C` [RIFAMPIN] was tested. Which MIC [1] did it give?
Answer: Its MIC is 64 µg/mL (≈ 77.8 µM).

Question: And the MIC [5]?
Answer: Its MIC is > 64 µg/mL.

Question: And the MIC [2]?
Answer: The MIC was > 64 µg/mL.

Question: What about the MIC [3] of the same molecule?
Answer: Its MIC is > 32 µg/mL.

Question: And the MIC [4]?
Answer: Its MIC is > 64 µg/mL.

Question: How did the MIC [1] turn out when `CCCCCCCCc1c2[n+](cc3c(OCC)c(OC)ccc13)CCc1cc(OCC)c(OCC)cc1-2.[Cl-]` was run?
Answer: Its MIC is 0.25 µg/mL.

Question: What about the MIC [5] of the same molecule?
Answer: The MIC was 0.5 µg/mL.

Question: What about the MIC [2] of the same molecule?
Answer: The MIC was 0.125 µg/mL.

Question: And the MIC [3]?
Answer: Its MIC is 0.125 µg/mL.

Question: What about the MIC [4] of the same molecule?
Answer: The MIC was 0.5 µg/mL.

Question: What does the source list for `CCCCCCCCc1c2[n+](cc3c(OC)c(OC)ccc13)CCc1cc3c(cc1-2)OCO3.[Cl-]`?
Answer: MIC [1]: 4 µg/mL; MIC [5]: 4 µg/mL; MIC [2]: 4 µg/mL; MIC [4]: 4 µg/mL

Question: Which results are given for `CCCCCCCCc1c2[n+](cc3c(OCc4ccccc4)c(OC)ccc13)CCc1cc(OCc3ccccc3)c(O)cc1-2.[Cl-]`?
Answer: MIC [1]: 0.5 µg/mL; MIC [5]: 0.25 µg/mL; MIC [2]: 1 µg/mL; MIC [3]: 0.5 µg/mL; MIC [4]: 1 µg/mL
